Consider 22 compounds from patent US9540343B2 (Gilead Sciences, Inc., priority 2011, dated 2017).

One data set deals with HIV-IIIb. Briefly: Test A: Antiviral assay in MT4 cells. It counts as cell-based, HIV-1. The note with it: Human immunodeficiency virus 1, IIIB, MT4, 120 h, read-out: % inhibition at 2 μM, percent inhibition of virus-induced cell killing, from dose response curve at 2 uM drug; MT-4 cells infected with HIV-IIIb, 5 days, CellTiter-Glo.
A short description of the next data set: in vitro. The note with it: human, uninfected MT-4 cells, CC50 (nM), same protocol as Test A, CellTiter-Glo. A digest of the protocol: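 Cytoprotection read-out: CellTiter-Glo chemiluminescence after 5 days at 37 °C of HIV-IIIb-infected MT-4 cells (m.o.i. 0.003) with compound in 10-point 3-fold dilutions, quadruplicate, 10% FBS. Cytotoxicity (CC50) measured identically without virus.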
(In general: ATP-based viability assays read luminescence as a measure of living cells.)

What is called inhibition is the share of the control response that was lost under treatment. What is called CC50 is the concentration giving 50% cytotoxicity. For the compound `Cc1nnc(-c2cccc(-c3cccnc3[C@H](Cc3cc(F)cc(F)c3)NC(=O)Cc3c[nH]c4ccc(F)cc34)c2)o1` [Example 99, (S)—N-(2-(3,5-difluorophenyl)-1-(3-(3-(5-methyl-1,3,4-oxadiazol-2-yl)phenyl)pyridin-2-yl)ethyl)-2-(5-fluoro-1H-indol-3-yl)acetamide], the inhibition at 2 µM in the data set on HIV-IIIb is 0%. This compound yielded a CC50 at 5 days in “in vitro” above 53200 nM.

As for `CC(C)Oc1ccc(-c2cccnc2[C@H](Cc2cc(F)cc(F)c2)NC(=O)Cn2nc(C(F)(F)F)c3c2CCCC3)cc1` [Example 100, (S)—N-(2-(3,5-difluorophenyl)-1-(3-(4-isopropoxyphenyl)pyridin-2-yl)ethyl)-2-(3-(trifluoromethyl)-4,5,6,7-tetrahydro-1H-indazol-1-yl)acetamide], the inhibition at 2 µM in the data set on HIV-IIIb was found to be 56%. Moreover, in “in vitro”, the CC50 at 5 days stood at 7830 nM.

Regarding `O=C(Cc1c[nH]c2ccc(F)cc12)N[C@@H](Cc1cc(F)cc(F)c1)c1ncccc1-c1ccc(N2CCCC2)nc1` [Example 101, (S)—N-(2-(3,5-difluorophenyl)-1-(6′-(pyrrolidin-1-yl)-3,3′-bipyridin-2-yl)ethyl)-2-(5-fluoro-1H-indol-3-yl)acetamide], the inhibition at 2 µM in the data set with HIV-IIIb came out at 29%. Moreover, it took 12600 nM to reach half-maximal cytotoxicity in the data set “in vitro” (CC50 at 5 days).

As to `CC(C)Cc1ccc(-c2cccnc2[C@H](Cc2cc(F)cc(F)c2)NC(=O)Cc2c[nH]c3ccc(F)cc23)cc1` [Example 103, (S)—N-(2-(3,5-difluorophenyl)-1-(3-(4-isobutylphenyl)pyridin-2-yl)ethyl)-2-(5-fluoro-1H-indol-3-yl)acetamide], the inhibition at 2 µM in the data set with HIV-IIIb turned out to be 0%. Besides, in the data set “in vitro”, the CC50 at 5 days was 5170 nM.

Consider `O=C(Cn1nc(C(F)F)c2c1C(F)(F)C1CC21)N[C@@H](Cc1cc(F)cc(F)c1)c1ncccc1-c1ccc2ccncc2c1` (stereo partly drawn) [Example 104, (S)—N-(1-(3-(isoquinolin-7-yl)-pyridin-2-yl)-2-(3,5-difluorophenyl)ethyl)-2-(3-(difluoromethyl)-5,6-dihydro-4,5-(methano)-6,6-difluoro-cyclopenta[c]pyrazol-1(4H)-yl)acetamide], for which the inhibition at 2 µM in the data set with HIV-IIIb was determined as 32%. This compound came in with a half-maximal cytotoxic concentration (CC50) at 5 days in “in vitro” of 15700 nM.

Take `O=C(Cn1nc(C(F)(F)F)c2c1CCCC2)N[C@@H](Cc1cc(F)cc(F)c1)c1ncccc1-c1ccc(S(=O)(=O)N2CCOCC2)cc1` [Example 105, (S)—N-(2-(3,5-difluorophenyl)-1-(3-(4-(morpholinosulfonyl)phenyl)pyridin-2-yl)ethyl)-2-(3-(trifluoromethyl)-4,5,6,7-tetrahydro-1H-indazol-1-yl)acetamide]: in the data set with HIV-IIIb, the inhibition at 2 µM was 99%. The compound also had a half-maximal cytotoxic concentration (CC50) at 5 days in “in vitro” of 9080 nM.

As for `NC(=O)c1cc(-c2cccnc2[C@H](Cc2cc(F)cc(F)c2)NC(=O)Cn2cc(C(F)(F)F)nc2C2CCCC2)ccc1F` [Example 107E, (S)-5-(2-(1-(2-(2-cyclopentyl-4-(trifluoromethyl)-1H-imidazol-1-yl)acetamido)-2-(3,5-difluorophenyl)ethyl)pyridin-3-yl)-2-fluorobenzamide], the inhibition at 2 µM in the data set on HIV-IIIb is 30%. Half-maximal cytotoxicity in the data set “in vitro” (CC50 at 5 days) was put at 42800 nM.

With `NC(=O)c1cccc(-c2cccnc2[C@H](Cc2cc(F)cc(F)c2)NC(=O)Cn2ncc3ccccc32)c1` [Example 108, (S)-3-(2-(1-(2-(1H-indazol-1-yl)acetamido)-2-(3,5-difluorophenyl)ethyl)pyridin-3-yl)benzamide], the inhibition at 2 µM in the data set with HIV-IIIb amounted to 13%. For the same compound, the CC50 at 5 days in the data set “in vitro” was above 53000 nM.

Regarding `Cc1ccccc1-c1cccnc1[C@H](Cc1cc(F)cc(F)c1)NC(=O)Cc1c[nH]c2ccc(F)cc12` [Example 109, (S)—N-(2-(3,5-difluorophenyl)-1-(3-o-tolylpyridin-2-yl)ethyl)-2-(5-fluoro-1H-indol-3-yl)acetamide], the inhibition at 2 µM with HIV-IIIb was determined as 50%. Besides, in the data set “in vitro”, the CC50 at 5 days stood at 9080 nM.

As for `O=C(Cc1c[nH]c2ccc(F)cc12)N[C@@H](Cc1cc(F)cc(F)c1)c1ncccc1-c1cccc(C(F)(F)F)c1` [Example 110, (S)—N-(2-(3,5-difluorophenyl)-1-(3-(3-(trifluoromethyl)phenyl)pyridin-2-yl)ethyl)-2-(5-fluoro-1H-indol-3-yl)acetamide], in the data set with HIV-IIIb, the inhibition at 2 µM is 6%. Besides, the CC50 at 5 days in “in vitro” stood at 7610 nM.

`O=C(Cc1c[nH]c2ccc(F)cc12)N[C@@H](Cc1cc(F)cc(F)c1)c1ncccc1-c1cnc2ccccc2c1` [Example 111, (S)—N-(2-(3,5-difluorophenyl)-1-(3-(quinolin-3-yl)pyridin-2-yl)ethyl)-2-(5-fluoro-1H-indol-3-yl)acetamide]: in the data set on HIV-IIIb, the inhibition at 2 µM was 41%. Also, the half-maximal cytotoxic concentration (CC50) at 5 days in the data set “in vitro” worked out at 9950 nM.

With `O=C(Cc1c[nH]c2ccc(O)cc12)N[C@@H](Cc1cc(F)cc(F)c1)c1ncccc1-c1ccc(F)cc1` [Example 113, (S)—N-(2-(3,5-difluorophenyl)-1-(3-(4-fluorophenyl)pyridin-2-yl)ethyl)-2-(5-hydroxy-1H-indol-3-yl)acetamide], the inhibition at 2 µM in the data set with HIV-IIIb came out at 78%. Moreover, the CC50 at 5 days in the data set “in vitro” turned out to be 22300 nM.

Regarding `O=C(Cn1nc(C(F)F)c2c1C(F)(F)C1CC21)N[C@@H](Cc1cc(F)cc(F)c1)c1ncccc1-c1ccc(NC(=O)NC2CC2)cc1` (stereo partly drawn) [Example 114, (S)—N-(1-(3-(4-(3-cyclopropylureido)phenyl)-pyridin-2-yl)-2-(3,5-difluorophenyl)ethyl)-2-(3-(difluoromethyl)-5,6-dihydro-4,5-(methano)-6,6-difluoro-cyclopenta[c]pyrazol-1(4H)-yl)acetamide], the inhibition at 2 µM in the data set with HIV-IIIb was determined as 32%. The compound also registered a half-maximal cytotoxic concentration (CC50) at 5 days in “in vitro” above 53200 nM.

Regarding `CCN(CC)S(=O)(=O)c1ccc(-c2cccnc2[C@H](Cc2cc(F)cc(F)c2)NC(=O)Cn2nc(C(F)F)c3c2C(F)(F)C2CC32)cc1` (stereo partly drawn) [Example 116, (S)—N-(1-(3-(4-(N,N-diethylsulfamoyl)phenyl)-pyridin-2-yl)-2-(3,5-difluorophenyl)ethyl)-2-(3-(difluoromethyl)-5,6-dihydro-4,5-(methano)-6,6-difluoro-cyclopenta[c]pyrazol-1(4H)-yl)acetamide], the inhibition at 2 µM with HIV-IIIb is 72%. In “in vitro”, this compound yielded a CC50 at 5 days above 53200 nM.

Consider `O=C(Cn1nc(C(F)(F)F)c2c1CCCC2)N[C@@H](Cc1cc(F)cc(F)c1)c1ncccc1-c1cccc(F)c1` [Example 117, (S)—N-(2-(3,5-difluorophenyl)-1-(3-(3-fluorophenyl)pyridin-2-yl)ethyl)-2-(3-(trifluoromethyl)-4,5,6,7-tetrahydro-1H-indazol-1-yl)acetamide], for which, in the data set on HIV-IIIb, the inhibition at 2 µM was determined as 89%. Also, in “in vitro”, it took 8260 nM to reach half-maximal cytotoxicity (CC50 at 5 days).

For `CN(C)S(=O)(=O)c1ccc(-c2cccnc2[C@H](Cc2cc(F)cc(F)c2)NC(=O)Cn2nc(C(F)F)c3c2C(F)(F)C2CC32)cc1` (stereo partly drawn) [Example 119, (S)—N-(1-(3-(4-(N,N-dimethylsulfamoyl)phenyl)-pyridin-2-yl)-2-(3,5-difluorophenyl)ethyl)-2-(3-(difluoromethyl)-5,6-dihydro-4,5-(methano)-6,6-difluoro-cyclopenta[c]pyrazol-1(4H)-yl)acetamide], the inhibition at 2 µM with HIV-IIIb turned out to be 48%. The CC50 at 5 days in “in vitro” was above 53200 nM.

In the case of `O=C(Cn1nc(C(F)F)c2c1C(F)(F)C1CC21)N[C@@H](Cc1cc(F)cc(F)c1)c1ncccc1-c1cncc2ccccc12` (stereo partly drawn) [Example 120, 2-(3-(difluoromethyl)-5,5-difluoro-3b,4,4a,5-tetrahydro-1H-cyclopropa[3,4]cyclopenta[1,2-c]pyrazol-1-yl)-N—((S)-2-(3,5-difluorophenyl)-1-(3-(isoquinolin-4-yl)pyridin-2-yl)ethyl)acetamide], the inhibition at 2 µM in the data set on HIV-IIIb is 73%. Besides, the midpoint of cytotoxicity in “in vitro”, the CC50 at 5 days, lay at 13800 nM.

Regarding `O=C(Cn1nc(C(F)(F)F)c2c1COCC2)N[C@@H](Cc1cc(F)cc(F)c1)c1ncccc1-c1ccc(Cl)cc1` [Example 121, (S)—N-(1-(3-(4-chlorophenyl)pyridin-2-yl)-2-(3,5-difluorophenyl)ethyl)-2-(3-(trifluoromethyl)-4,5-dihydropyrano[3,4-c]pyrazol-1(7H)-yl)acetamide], in the data set with HIV-IIIb, the inhibition at 2 µM stood at 68%. Half-maximal cytotoxicity in “in vitro” (CC50 at 5 days) was put at 9100 nM.

On to `NC(=O)c1cc(-c2cccnc2[C@H](Cc2cc(F)cc(F)c2)NC(=O)Cn2[nH]c(=O)c3c2CCCC3)ccc1F` [Example 123E, (S)-5-(2-(2-(3,5-difluorophenyl)-1-(2-(3-oxo-2,3,4,5,6,7-hexahydro-1H-indazol-1-yl)acetamido)ethyl)pyridin-3-yl)-2-fluorobenzamide], for which, in the data set with HIV-IIIb, the inhibition at 2 µM was 84%. In addition, in “in vitro”, the CC50 at 5 days was above 53200 nM.

Regarding `O=C(Cn1nc(C(F)F)c2c1C(F)(F)C1CC21)N[C@@H](Cc1cc(F)cc(F)c1)c1ncncc1-c1ccc2cccnc2c1` (stereo partly drawn) [Example 124C, 2-(3-(difluoromethyl)-5,5-difluoro-3b,4,4a,5-tetrahydro-1H-cyclopropa[3,4]cyclopenta[1,2-c]pyrazol-1-yl)-N—((S)-2-(3,5-difluorophenyl)-1-(5-(quinolin-7-yl)pyrimidin-4-yl)ethyl)acetamide], the inhibition at 2 µM with HIV-IIIb is 77%. In “in vitro”, it took 20200 nM to reach half-maximal cytotoxicity (CC50 at 5 days).

As for `NC(=O)c1cc(-c2cccnc2[C@H](Cc2cc(F)cc(F)c2)NC(=O)[C@H]2CCC(=O)N2)ccc1F` [Example 125, (R)—N—((S)-1-(3-(3-carbamoyl-4-fluorophenyl)pyridin-2-yl)-2-(3,5-difluorophenyl)ethyl)-5-oxopyrrolidine-2-carboxamide], the inhibition at 2 µM in the data set with HIV-IIIb turned out to be 0%. This compound returned a CC50 at 5 days in the data set “in vitro” above 53000 nM.

`NC(=O)c1cc(-c2cccnc2[C@H](Cc2cc(F)cc(F)c2)NC(=O)C2CCCN2C(=O)c2ccccc2)ccc1F` (stereo partly drawn) [Example 126, 1-benzoyl-N—((S)-1-(3-(3-carbamoyl-4-fluorophenyl)pyridin-2-yl)-2-(3,5-difluorophenyl)ethyl)pyrrolidine-2-carboxamide]: in the data set with HIV-IIIb, the inhibition at 2 µM came out at 7%. In the data set “in vitro”, this compound displayed a CC50 at 5 days above 53000 nM.
